Data on 1 compound can be found in patent publication US20100261682A1, “Method and Means for the Treatment of Cachexia” (Bioneris AB, priority 2007, published 2010).

Common to all, as to assay type: in vivo, NMRI mice
One test concerns caspase 8. Nature of the test: Caspase 8 activity in gastrocnemius muscle. The following applies: 40 mg/kg; still significantly higher than in non-tumour-bearing animals. The procedure:
(§1) Administration of alpha-trinositol. Mice (n=6) bearing the MAC16 tumour were treated with AT (40 mg/kg) s.c., 3 times per day, for 5 days, while a control group received PBS. Protein synthesis and degradation were determined by the incorporation and release of L-[2,6-^3H]phenylalanine, as described in Smith et al., Cancer Res., 2005; 65:277-83. On the fourth day of treatment half of the group administered 0.4 mmol/L L-[2,6-^3H]phenylalanine in PBS (100 μl) by i.p. administration.
Determination of Caspase activity. The activity of caspase 3 was determined by the release of 7-amino-4-methylcoumarin (AMC) from the specific substrate AcDEVD-AMC in the presence or absence of the caspase 3 inhibitor AcDEVD-CHO. […] The supernatant (50 μg protein) was incubated with the caspase 3 substrate for 1 h and the increase in fluorescence due to AMC was determined at an excilation wavelength of 370 nm and an emission wavelength of 430 nm. […] The increase in fluorescence due to the release of 7-amino-4-trifluoro-methylcoumarin (AFC) was measured with an excitation wavelength of 400 nm and an emission of 505 nm.

The subject of test [1] is mice bearing the MAC16 tumour. Put plainly: Body weight change in cachectic mice bearing the MAC16 tumour treated with alpha-trinositol (Example 1). The procedure:
Materials. Alpha-trinositol (1-D-Myo-inositol 1,2,6-triphosphate) was prepared according to U.S. Pat. No. 4,777,134. In a glass ampoule a stock solution was prepared by dissolving 1 g of alpha-trinositol in saline to a total volume of 10 ml. The stock solution was stored in a refrigerator for use within 24 hrs.
(§2) Animals. Pure strain male NMRI mice (average body weight 25 g) were transplanted with fragments of the MAC16 tumour subcutaneously into the flank by means of a trochar, selected from donor animals with established weight loss (Bibby M C et al., Characterization of transplantable adenocarcinoma in the mouse colon producing cachexia in the recipient animals. J Natl Cancer Inst 78 (1987) 539-546). Transplanted animals were given a rat and mouse breeding diet (Special Diet Services, Witham, UK) and water at lib. Weight loss was evident 10 to 12 days after tumour implantation. Just prior to the development of weight loss 24 animals were randomized into four groups (I-IV) of six animals each.
(§3) Administration of alpha-trinositol. A first experiment was started when the animals had lost about 5% of body weight. Aliquots (2.5 μl, Group I; 5 μl, Group II; 10 μl, Group III) of alpha-trinositol stock solution corresponding to doses of 10 mg/kg, 20 mg/kg, and 40 mg/kg for a 25 g animal were administered subcutaneously three times per day at 8.00, 12.00 and 16.00 hrs. The fourth group (Group IV; control) was given an intravenous injection of 10 μl of water. Body weight (FIG. 1), tumour volume (FIG. 2), and water and food intake were determined daily after the last injection.

Another test has as its system MAC16 tumour. Put plainly: Tumour volume in MAC16 tumour-bearing mice treated with alpha-trinositol (Example 1). Conditions: 10 mg/kg s.c. three times per day.
Description: as §2, §3

Another test concerns eIF4G.eIF4E complex. Nature of the test: Western blot after m7GTP-Sepharose extraction: active eIF4G.eIF4E complex. The following applies: 40 mg/kg. The protocol:
as §1
Western blot analysis Gastrocnemius muscle (10 mg) was homogenised in Phosphosafe™ Extraction Reagent (500 μl) and centrifuged at 15000 g for 15 min. Samples of the cytosolic proteins (5 μg) were loaded on either a 10% (mTOR, myosin, eIF4E and eIF4G) 12% (PKR, eIF2α and actin) or 15% (4E-BP1) sodium dodecylsulphate-polyacrylamide gel (SDS-PAGE) and electrophoresed at 180 V for approximately 1 h. The extent of phosphorylation of 4E-BP1, and the association of 4E-BP1 and eIF4G with eIF4E was determined by Western blotting when eIF4E was extracted from the muscle samples by m^7GTP-Sepharose 4B-affinity binding, as previously described Eley ey al., Biochem J., 2007; 407:113-20, by loading 20 μg of protein. […] Blots were scanned by a densitometer to quantify differences.
For orientation: Immunoblotting shows a protein as a band on a membrane.

Each structure is given as a SMILES string.

`O=P(O)(O)O[C@@H]1[C@H](OP(=O)(O)O)[C@H](O)[C@@H](O)[C@H](O)[C@H]1OP(=O)(O)O` [alpha-trinositol, 1-D-Myo-inositol 1,2,6-triphosphate]: in the test on caspase 8, the “activity of caspase-8 in gastrocnemius muscle” value is “significantly reduced”. In test [1] (10 mg/kg s.c. three times per day), the “anti-cachexia effect (body weight)” value is reported as “clear anti-cachexia effect”. In addition, the “relative weight loss versus control group” value in test [1] (day 0 to day 5, AT group) is given as “half of the control group”. Also, the body weight lost in test [1] (day 0 to day 5, AT group, s.c. three times per day (FIG. 3: 3×40 mg/kg), control lost ~4.7 g) is reported as ~2.3 g; in test [1] (day 1 (first day of treatment) to day 5, AT group, control lost 3.3 g) it was 1.15 g. In addition, the “weight loss as fraction of the control group” value in test [1] (day 1 to day 5, AT group) is “⅓”. Further, the tumour inhibition entry with MAC16 tumour is “did not produce any statistically significant effect”. Also, the “tumour-induced decrease in formation of the active eIF4G.eIF4E complex” value in the test on eIF4G.eIF4E complex is reported as “completely attenuated”.
